Results as given in US8748462B2, “Spirocyclic GPR40 modulators” (Amgen Inc., priority 2008, dated 2014).

What was measured:
human GPR40 [1] = molecular target: T1, human GPR40 (Homo sapiens, UniProt O14842); test: Cell-based aequorin assay; conditions: CHO cells stably transfected with GPR40 and aequorin; 0.01% HSA
T1 construct: expressed in transfected cells; host or cells: CHO cells stably transfected with GPR40 and Aequorin
Method: Cell-based aequorin assays were employed to characterize the modulatory activity of compounds on the GPR40 signaling pathway. In an exemplary assay, CHO cells were stably transfected with both GPR40 and Aequorin (Euroscreen). Cells were detached from the tissue culture dish with 2 mL of trypsin (0.25% (w/v)). Trypsinization was halted with 28 mL of Hanks Buffered Salt Solution containing 20 mM Hepes (H/HBSS) and 0.01% fatty acid-free human serum albumin (HSA). Coelantrazine is added to 1 ug/mL, and the cells were incubated for 2 hours at room temperature. Compounds were dissolved in DMSO for preparation of 10 mM stock solutions. Compounds were diluted in H/HBSS containing 0.01% HSA. Serial dilutions of the test compounds were prepared to determine dose response.
Aequorin luminescence measurements were made using an EG&G Berthold 96-well luminometer, and the response was measured over a 20 second interval after cells and compounds were mixed. The maximum relative light units was plotted to determine dose response. The EC50 (effective concentration to reach 50% maximal response) was determined from the dose response plot.

human GPR40 [2] = molecular target: T1, human GPR40; test: Inositol phosphate accumulation assay; type: cell-based; conditions: A9 cell line stably transfected with GPR40; 1 hour at 37° C.; read-out: IP3 EC50
Method: An A9 cell line stably transfected with GPR40 (A9_GPR40) was used in IP accumulation assays. A9_GPR40 cells were plated in 96-well plates containing 20,000 cells/well in DMEM containing 10% FBS. After the cells attached to the well surface, the media was replaced with inositol free DMEM containing 10% dialyzed FBS and 1 μCi, mL ^3H-inositol and incubated for 16 hours. Compounds were diluted in HBSS/10 mM LiCl containing a desired amount of HSA and added directly to cells. Following 1 hour incubation at 37° C., the media was replaced with 100 μL of 20 mM formic acid to quench the reaction. 50 μL of the extract was then added to 100 μL of SPA beads, incubated overnight, and measured on a TopCount the following day.

T1 sequence (O14842 whole entry): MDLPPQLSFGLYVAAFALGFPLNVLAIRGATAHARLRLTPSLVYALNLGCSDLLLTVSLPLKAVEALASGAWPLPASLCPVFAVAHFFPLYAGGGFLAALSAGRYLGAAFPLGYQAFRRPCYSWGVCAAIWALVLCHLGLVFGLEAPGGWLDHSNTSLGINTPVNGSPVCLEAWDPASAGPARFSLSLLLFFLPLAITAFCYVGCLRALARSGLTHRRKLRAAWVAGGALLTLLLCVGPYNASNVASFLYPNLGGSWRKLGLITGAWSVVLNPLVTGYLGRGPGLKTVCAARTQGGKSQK

Structure (SMILES) | EC50 (human GPR40 [1]) [nM] | EC50 (human GPR40 [2]) [nM]
COc1cc(-c2ccc(COc3ccc4c(c3F)[C@]3(CCC4)C[C@H]3C(=O)O)cc2[C@@H](OC)C(C)(C)C)c(F)cn1 (single isomer, unassigned) [Example 53] | 10 to 100 | < 10
COc1ccc(F)c(-c2ccc(COc3ccc4c(c3)[C@]3(CCC4)C[C@H]3C(=O)O)cc2C2=CCCC2(C)C)c1 [Example 49] | 100 to 1000 | 10 to 100
COc1ccc(F)c(-c2ccc(COc3ccc4c(c3)[C@]3(CCC4)CC[C@@H]3C(=O)O)cc2C2=CCCC2(C)C)c1 (single isomer, unassigned) [Example 158] | 100 to 1000 | 10 to 100
COc1cc(-c2ccc(COc3ccc4c(c3)[C@]3(CC4)C[C@H]3C(=O)O)cc2[C@@H]2CCCC2(C)C)c(F)cn1 [Example 19, (1R,2R)-6′-(3-((R)-2,2-Dimethylcyclopentyl)-4-(5-fluoro-2-methoxypyridin-4-yl)benzyloxy)-2′,3′-dihydrospiro[cyclopropane-1,1′-indene]-2-carboxylic acid] | 10 to 100 | < 10
COc1cc(-c2ccc(COc3ccc4c(c3F)[C@]3(CC4)C[C@H]3C(=O)O)cc2[C@@H](OC)C(C)(C)C)c(F)cn1 (single isomer, unassigned) [Example 30] | 10 to 100 | < 10
COc1cc(-c2ccc(COc3ccc4c(c3)[C@]3(CCC4)C[C@H]3C(=O)O)cc2[C@@H]2CCCC2(C)C)c(F)cn1 [Example 48] | 10 to 100 | < 10
COc1cc(-c2ccc(COc3cc(F)c4c(c3F)[C@]3(CC4)C[C@H]3C(=O)O)cc2[C@H](OC)C(C)(C)C)c(F)cn1 (single isomer, unassigned) [Example 127] | 100 to 1000 | < 10
COc1cc(-c2ccc(COc3ccc4c(c3F)[C@]3(CC4)C[C@H]3C(=O)O)cc2[C@@H]2CCCC2(C)C)c(F)cn1 (single isomer, unassigned) [Example 32] | 100 to 1000 | < 10
COc1ccc(F)c(-c2cc(F)c(COc3ccc4c(c3)[C@]3(CC4)C[C@H]3C(=O)O)cc2[C@H]2CCCC2(C)C)c1 (single isomer, unassigned) [Example 14] | 100 to 1000 | < 10
CCCOc1ccc(COc2ccc3c(c2)[C@]2(CCC3)C[C@H]2C(=O)O)cc1[C@@H]1CCCC1(C)C (single isomer, unassigned) [Example 129] | 1000 to 10000 | 100 to 1000
COc1ccc(F)c(-c2ccc(COc3ccc4c(c3F)[C@@]3(CCC4)C[C@@H]3C(=O)O)cc2[C@H]2CCCC2(C)C)c1 (single isomer, unassigned) [Example 52] | > 10000 | 1000 to 10000
COc1cc(-c2ccc(COc3ccc4c(c3F)[C@]3(CC4)C[C@H]3C(=O)O)cc2[C@@H]2CCCC2(C)C)c(Cl)cn1 (stereo in doubt) [Example 125] | 100 to 1000 | 10 to 100

Now from value to molecule:

EC50 (human GPR40 [1]) [nM] | EC50 (human GPR40 [2]) [nM] | Structure (SMILES)
100 to 1000 | 10 to 100 | COc1ccc(F)c(-c2ccc(COc3ccc4c(c3)[C@]3(CC4)C[C@H]3C(=O)O)cc2[C@@H]2CCCC2(C)C)c1 (single isomer, unassigned) [Example 9]
100 to 1000 | < 10 | COc1ccc(F)c(-c2ccc(COc3ccc4c(c3)C3(CCC4)CCC3C(=O)O)cc2C(OC)C(C)(C)C)c1 (single isomer, unassigned) [Example 155]
100 to 1000 | < 10 | COc1cc(-c2ccc(COc3ccc4c(c3)[C@]3(CCC4)C[C@H]3C(=O)O)cc2[C@H](OC)C(C)(C)C)c(Cl)cn1 (racemic) [Example 139]
10 to 100 | < 10 | COc1ccc(F)c(-c2ccc(COc3ccc4c(c3)[C@]3(CCC4)C[C@H]3C(=O)O)cc2[C@@H](OC)C(C)(C)C)c1 (single isomer, unassigned) [Example 46]
10 to 100 | < 10 | COc1cc(-c2ccc(COc3ccc4c(c3)[C@]3(CCC4)C[C@H]3C(=O)O)cc2[C@@H](OC)C(C)(C)C)c(F)cn1 (single isomer, unassigned) [Example 44]
10 to 100 | < 10 | COc1ccc(F)c(-c2ccc(COc3ccc4c(c3)[C@]3(CC4)C[C@H]3C(=O)O)cc2[C@H]2CCCC2(C)C)c1 (single isomer, unassigned) [Example 11]
100 to 1000 | < 10 | COc1cc(-c2ccc(COc3ccc4c(c3)[C@]3(CC4)C[C@H]3C(=O)O)cc2[C@@H](OC)C(C)(C)C)c(F)cn1 (single isomer, unassigned) [Example 28]
10 to 100 | < 10 | COc1ccc(F)c(-c2ccc(COc3ccc4c(c3)[C@]3(CC4)C[C@H]3C(=O)O)cc2[C@@H](OC)C(C)(C)C)c1 (single isomer, unassigned) [Example 12]
100 to 1000 | 10 to 100 | COc1cccc(-c2ccc(COc3ccc4c(c3)[C@]3(CCC4)C[C@H]3C(=O)O)cc2[C@H](OC)C(C)(C)C)c1F (racemic) [Example 134]
